How the values were obtained:
MDA-MB-231 cells [1] = assay: Cell viability, CCK-8 assay, MDA-MB-231; type: cell-based, human; details: MDA-MB-231 (KRAS G13D), CCK-8, 0-1,000 μM RBP, 24, 48 or 72 h, triplicate
Procedure: (§1) The viability of the cells was determined via Cell Counting Kit-8 (CCK-8; Dojindo Laboratories, Kumamoto, Japan) assay. The cells were plated in 96-well culture plates at a density of 5 × 10^3 cells per well and incubated for 24 h at 37 °C in a humidified incubator with 5% CO2. […] After incubation, the medium was replaced with fresh medium containing 10% (v/v) CCK-8 reagent, and the cells were incubated for 2 h. Absorbance was measured at 450 nm using a microplate reader. All experiments were performed in triplicate.

MCF-7 cells = assay: Cell viability, CCK-8 assay, MCF-7; type: cell-based, human; details: MCF-7 (KRAS wild-type), CCK-8, 0-1,000 μM RBP, 24, 48 or 72 h, triplicate
Procedure: as §1

MDA-MB-231 cells [2] = assay: Tumor colony forming assay; type: cell-based, human; details: MDA-MB-231, 0, 1, 10, 50, 100 or 200 μM RBP, 5 d, crystal violet
Procedure: MDA-MB-231 cells were plated in 24-well culture plates at a density of 1 × 10^3 cells per well and incubated for 24 h at 37 °C in a humidified incubator with 5% CO2. […] The cells were fixed with Carnoy’s fixative (75% methanol and 25% acetic acid) for 5 min at room temperature and stained with 0.4% crystal violet for 5 min. After staining, the cells were rinsed with distilled water, and images were taken.

MDA-MB-231 cells [3] = assay: Transwell migration assay; type: cell-based, human; details: MDA-MB-231, Transwell 8-μm pore, 200 μM RBP, 6 h
Procedure: To assess MDA-MB-231 cell migration, 2 methods were employed: a Transwell migration assay and a scratch assay. For the Transwell migration assay, 24-well Transwell plates (8-μm pore size; Costar, Corning Incorporated, Corning, NY, USA) were used to evaluate the invasive potential of the cells. […] Following a 6-h incubation period, nonmigratory cells were carefully removed from the upper surface of the membrane using a PBS-soaked cotton swab. The cells that successfully migrated through the membrane were fixed in methanol for 10 min, and Giemsa staining was used to visualize them. Images were captured using an Olympus DP72 camera at ×100 magnification, and the number of migrated cells in the treated samples was compared with that in the control samples. For the scratch assay, MDA-MB-231 cells (1 × 10^6 cells) were cultured in 6-well plates until they reached confluence. The cells were rinsed with PBS and incubated overnight in serum-free medium. A sterile 200-μl plastic pipette tip was used to create a linear scratch in the center of the monolayer. […] Images were taken immediately after scratching and again after 6, 24, 48, and 72 h of incubation using an Olympus CKX41 inverted microscope at ×20 magnification to evaluate the distance the cells migrated from the wound edge.

[4] = tested on: phospho-c-RAF and phospho-ERK1/2 in HCT-116 cells; assay: Western blot of RAS-MAPK pathway, HCT-116; type: cell-based, human; details: HCT-116, 10-250 μM RBP 6 h then 50 ng/ml EGF 10 min
Procedure: Protein expression was confirmed via Western blot analysis. Briefly, 9 × 10^5 cells were cultured in 100-mm-diameter dishes. When they reached 90% confluence, the cells were starved for 18 h in serum-free medium. […] At the end of the culture period, the cells were lysed for 20 min in cold lysis buffer on ice. Protein concentration was measured using bicinchoninic acid protein assays (Thermo Fisher Scientific, MA, USA). Equal aliquots of protein (40 μg) were boiled for 7 min in 5× sample buffer and separated by 10% SDS–PAGE. Proteins were transferred onto nitrocellulose membranes, followed by washing with Tris-buffered saline (TBS) containing 0.1% Tween 20 (TBST). The membranes were then blocked for 60 min at room temperature with 5% skim milk in TBST. Following the washing procedure, the membranes were incubated with primary antibodies (RAS, phospho-ERK1/2, ERK1/2, phospho-RAF proto-oncogene serine/threonine-protein kinase [phospho-c-RAF; S338], c-RAF [Cell Signaling Technology, Beverly, MA, USA], and GAPDH [Santa Cruz Biotechnology, Inc., Santa Cruz, CA, USA]) diluted in TBST containing 5% skim milk at 4 °C for 18 h. […] The membranes were subsequently washed 3 more times, and protein bands were detected using chemiluminescence reagents (West Pico PLUS, Thermo Fisher Scientific, USA).

[5] = tested on: MDA-MB-231 cell-derived tumors; assay: Mouse xenograft tumor model; type: in vivo; details: BALB/c nude mice, MDA-MB-231 xenograft
Procedure: Female BALB/c nude mice (aged 5 to 6 weeks) were utilized in these studies to establish breast cancer xenograft models. These mice were obtained from Orient Bio, Inc. (Seongnam, Republic of Korea) and maintained in the Division of Laboratory Animal Resources animal facility throughout the experimental period. The selection, management, and experimental protocols, as well as the preparation of the animals, were conducted in accordance with the guidelines approved by the Institutional Animal Care and Use Committee of Seoul National University. All experiments adhered to the animal protocol approved by the Institutional Animal Care and Use Committee at Seoul National University (protocol number: SNU-171026-1-5). MDA-MB-231 cells were cultured until they reached 80% to 90% confluency and then harvested and prepared as suspensions (3 × 10^6 cells/100 μl in PBS) mixed with Matrigel. These cell suspensions were injected into the right hind flanks of nude mice (n = 8). […] The control mice received PBS injections. The mice were weighed, and their tumor volumes were measured 3 times per week using Vernier calipers, starting on the first day of treatment. The tumor volume was calculated using the formula tumor volume = A × B^2 × 0.52, where A represents the longest tumor diameter and B represents the shortest diameter. After 6 weeks, the mice were euthanized in a sealed chamber with CO2 gas for 5 to 10 min, and their solid tumors were harvested and fixed in 4% paraformaldehyde for subsequent analysis via immunohistochemistry (IHC).
The tissues were fixed in 4% formalin before being embedded in paraffin. Sections with a thickness of 4 μm were deparaffinized with xylene and then rehydrated with a graded series of ethanol solutions, ranging from 95% to 100%. […] Antibody binding was detected through incubation with EnVision FLEX/horseradish peroxidase (Dako) for 30 min. […] The intensity and distribution of Ki-67-specific immunostaining were assessed using a Leica DM6B digital light fluorescence microscope following hematoxylin counterstaining.

[6] = 10 mg/kg intraperitoneal, 6 weeks

## C[C@@H](O)[C@H](NC(=O)[C@H](CO)NC(=O)[C@H](CS)NC(=O)[C@H](CCCCN)NC(=O)CN)C(=O)N[C@@H](CCCNC(=N)N)C(=O)NCC(=O)N[C@@H](CCCNC(=N)N)C(=O)N[C@@H](CCCCN)C(=O)N[C@@H](CS)C(=O)N[C@@H](CS)C(=O)N[C@@H](CCCNC(=N)N)C(=O)N[C@@H](CCCNC(=N)N)C(=O)N[C@@H](CCCCN)C(=O)N[C@@H](CCCCN)C(N)=O [RBP]
MDA-MB-231 cells [1]
  percentage of viable cells: reduced the percentage of viable KRAS G13D mutant cells in a dose-dependent manner
MCF-7 cells
  decrease in the percentage of viable cells: not significant
MDA-MB-231 cells [2]
  colony area: dose-dependent decrease in colony area
MDA-MB-231 cells [3]
  reduction of cell invasion vs NT group: 70%
[4]
  activation of RAF (phospho-c-RAF): effectively inhibited
[4]; p-ERK/ERK, n = 3
  phosphorylation of ERK1/2: effectively inhibited
[5]; 10 mg/kg intraperitoneal 3 times per week for 6 weeks, n = 8, P < 0.05
  tumor growth vs not-treated group: significant reduction
[5]; [6]
  Ki-67 expression in tumor sections (IHC): decreased Ki-67 expression
  immune cell infiltration in tumors (H&E): increased immune cell infiltration

— article PMC11997307, “Rat Sarcoma (RAS)-Protein-Targeting Synthetic Cell-Penetrating Peptide as an Anticancer Biomaterial” (Biomaterials Research, 2025)
